Reference: PubChem BioAssay (NCI)
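Interpolation was linear, between the two tested concentrations surrounding the appropriate level; five concentrations were tested over 48 hours in 96-well plates. Here, GI50 denotes the concentration required for 50% inhibition of growth. The concentration for full growth arrest is given as TGI.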

Columns and labels:
Assay in all cases: DTP human tumour cell line panel, 48 h
786-0 renal = tested on: 786-0 renal
A498 renal = tested on: A498 renal
A549 NSCLC = tested on: A549 NSCLC
ACHN renal = tested on: ACHN renal
BT-549 breast = tested on: BT-549 breast
CAKI-1 renal = tested on: CAKI-1 renal
CCRF-CEM leukemia = tested on: CCRF-CEM leukemia
COLO 205 colon = tested on: COLO 205 colon
DU-145 prostate = tested on: DU-145 prostate
EKVX NSCLC = tested on: EKVX NSCLC
HCC-2998 colon = tested on: HCC-2998 colon
HCT-116 colon = tested on: HCT-116 colon
HCT-15 colon = tested on: HCT-15 colon
HL-60(TB) leukemia = tested on: HL-60(TB) leukemia
HOP-62 NSCLC = tested on: HOP-62 NSCLC
HOP-92 NSCLC = tested on: HOP-92 NSCLC
HS 578T breast = tested on: HS 578T breast
HT29 colon = tested on: HT29 colon
IGROV1 ovarian = tested on: IGROV1 ovarian
K-562 leukemia = tested on: K-562 leukemia
KM12 colon = tested on: KM12 colon
LOX IMVI melanoma = tested on: LOX IMVI melanoma
M14 melanoma = tested on: M14 melanoma
MALME-3M melanoma = tested on: MALME-3M melanoma
MCF7 breast = tested on: MCF7 breast
MDA-MB-231 breast = tested on: MDA-MB-231 breast
MDA-MB-435 = tested on: MDA-MB-435
MOLT-4 leukemia = tested on: MOLT-4 leukemia
NCI-H226 lung = tested on: NCI-H226 lung
NCI-H23 lung = tested on: NCI-H23 lung
NCI-H460 lung = tested on: NCI-H460 lung
NCI-H522 lung = tested on: NCI-H522 lung
NCI/ADR-RES ovarian = tested on: NCI/ADR-RES ovarian
OVCAR-3 ovarian = tested on: OVCAR-3 ovarian
OVCAR-4 ovarian = tested on: OVCAR-4 ovarian
OVCAR-5 ovarian = tested on: OVCAR-5 ovarian
OVCAR-8 ovarian = tested on: OVCAR-8 ovarian
PC-3 prostate = tested on: PC-3 prostate
RPMI-8226 leukemia = tested on: RPMI-8226 leukemia
RXF 393 renal = tested on: RXF 393 renal
SF-268 CNS = tested on: SF-268 CNS
SF-295 CNS = tested on: SF-295 CNS
SF-539 CNS = tested on: SF-539 CNS
SK-MEL-2 melanoma = tested on: SK-MEL-2 melanoma
SK-MEL-28 melanoma = tested on: SK-MEL-28 melanoma
SK-MEL-5 melanoma = tested on: SK-MEL-5 melanoma
SK-OV-3 ovarian = tested on: SK-OV-3 ovarian
SN12C renal = tested on: SN12C renal
SNB-19 CNS = tested on: SNB-19 CNS
SNB-75 CNS = tested on: SNB-75 CNS
SW-620 colon = tested on: SW-620 colon
T-47D breast = tested on: T-47D breast
TK-10 renal = tested on: TK-10 renal
U251 CNS = tested on: U251 CNS
UACC-257 melanoma = tested on: UACC-257 melanoma
UACC-62 melanoma = tested on: UACC-62 melanoma
UO-31 renal = tested on: UO-31 renal

In the case of `O=C(/C=C/C12c3ccccc3C(c3ccccc31)C1C(=O)NC(=O)C12)c1ccc(F)cc1` (centres undefined), the GI50 (786-0 renal) is reported as 1.79 µM, the TGI (786-0 renal) is reported as 3.35 µM and the GI50 (A498 renal) is reported as 1.68 µM. The TGI (A498 renal) was 3.11 µM, the GI50 (A549 NSCLC) was 2.39 µM and the TGI (A549 NSCLC) was 7.01 µM. For the same compound, the GI50 (ACHN renal) was 2.43 µM, the TGI (ACHN renal) was 6.18 µM and the GI50 (BT-549 breast) was 1.69 µM. It also gave a TGI (BT-549 breast) of 3.42 µM, a GI50 (CAKI-1 renal) of 1.87 µM and a TGI (CAKI-1 renal) of 4.37 µM. For the same compound, the GI50 (CCRF-CEM leukemia) was 2.45 µM, the TGI (CCRF-CEM leukemia) was 8.42 µM and the GI50 (COLO 205 colon) was 2.18 µM. For the same compound, the TGI (COLO 205 colon) was 4.27 µM, the GI50 (DU-145 prostate) was 1.63 µM and the TGI (DU-145 prostate) was 3 µM. For the same compound, the GI50 (EKVX NSCLC) was 1.7 µM, the TGI (EKVX NSCLC) was 4.45 µM and the GI50 (HCC-2998 colon) was 1.62 µM. The TGI (HCC-2998 colon) was 3.1 µM, the GI50 (HCT-116 colon) was 1.58 µM and the TGI (HCT-116 colon) was 3.41 µM. It also gave a GI50 (HCT-15 colon) of 1.66 µM, a TGI (HCT-15 colon) of 4.2 µM and a GI50 (HL-60(TB) leukemia) of 0.0217 µM. The TGI (HL-60(TB) leukemia) was 2.1 µM, the GI50 (HOP-62 NSCLC) was 2.63 µM and the TGI (HOP-62 NSCLC) was 7.4 µM. For the same compound, the GI50 (HOP-92 NSCLC) was 1.59 µM, the TGI (HOP-92 NSCLC) was 3.55 µM and the GI50 (HS 578T breast) was 2.28 µM. The TGI (HS 578T breast) was 7.84 µM, the GI50 (HT29 colon) was 2.34 µM and the TGI (HT29 colon) was 5.21 µM. The GI50 (IGROV1 ovarian) was 2.09 µM, the TGI (IGROV1 ovarian) was 5.9 µM and the GI50 (K-562 leukemia) was 1.42 µM. The TGI (K-562 leukemia) was 4.75 µM, the GI50 (KM12 colon) was 1.78 µM and the TGI (KM12 colon) was 3.43 µM. It also gave a GI50 (LOX IMVI melanoma) of 1.67 µM, a TGI (LOX IMVI melanoma) of 3.28 µM and a GI50 (M14 melanoma) of 1.92 µM. For the same compound, the TGI (M14 melanoma) was 3.96 µM, the GI50 (MALME-3M melanoma) was 1.97 µM and the TGI (MALME-3M melanoma) was 4.02 µM. For the same compound, the GI50 (MCF7 breast) was 1.66 µM, the TGI (MCF7 breast) was 4.48 µM and the GI50 (MDA-MB-231 breast) was 3.05 µM. It also gave a TGI (MDA-MB-231 breast) of 9.58 µM, a GI50 (MDA-MB-435) of 2.44 µM and a TGI (MDA-MB-435) of 6.41 µM. For the same compound, the GI50 (MOLT-4 leukemia) was 0.457 µM, the TGI (MOLT-4 leukemia) was 2.9 µM and the GI50 (NCI-H226 lung) was 2.74 µM. The TGI (NCI-H226 lung) was 9.51 µM, the GI50 (NCI-H23 lung) was 1.83 µM and the TGI (NCI-H23 lung) was 3.91 µM. It also gave a GI50 (NCI-H460 lung) of 2.04 µM, a TGI (NCI-H460 lung) of 5.05 µM and a GI50 (NCI-H522 lung) of 2.14 µM. For the same compound, the TGI (NCI-H522 lung) was 4.98 µM, the GI50 (NCI/ADR-RES ovarian) was 1.87 µM and the TGI (NCI/ADR-RES ovarian) was 4.03 µM. For the same compound, the GI50 (OVCAR-3 ovarian) was 1.7 µM, the TGI (OVCAR-3 ovarian) was 3.15 µM and the GI50 (OVCAR-4 ovarian) was 3.46 µM. It also gave a TGI (OVCAR-4 ovarian) of 13.2 µM, a GI50 (OVCAR-5 ovarian) of 1.92 µM and a TGI (OVCAR-5 ovarian) of 4.12 µM. The GI50 (OVCAR-8 ovarian) was 1.86 µM, the TGI (OVCAR-8 ovarian) was 4.84 µM and the GI50 (PC-3 prostate) was 1.66 µM. It also gave a TGI (PC-3 prostate) of 3.38 µM, a GI50 (RPMI-8226 leukemia) of 1.62 µM and a TGI (RPMI-8226 leukemia) of 4.39 µM. The GI50 (RXF 393 renal) was 1.77 µM, the TGI (RXF 393 renal) was 3.3 µM and the GI50 (SF-268 CNS) was 1.65 µM. The TGI (SF-268 CNS) was 3.2 µM, the GI50 (SF-295 CNS) was 2.01 µM and the TGI (SF-295 CNS) was 4.24 µM. It also gave a GI50 (SF-539 CNS) of 1.7 µM, a TGI (SF-539 CNS) of 3.11 µM and a GI50 (SK-MEL-2 melanoma) of 2.06 µM. The TGI (SK-MEL-2 melanoma) was 4.23 µM, the GI50 (SK-MEL-28 melanoma) was 1.85 µM and the TGI (SK-MEL-28 melanoma) was 3.39 µM. For the same compound, the GI50 (SK-MEL-5 melanoma) was 1.72 µM, the TGI (SK-MEL-5 melanoma) was 3.16 µM and the GI50 (SK-OV-3 ovarian) was 2.79 µM. The TGI (SK-OV-3 ovarian) was 8.03 µM, the GI50 (SN12C renal) was 1.7 µM and the TGI (SN12C renal) was 3.29 µM. It also gave a GI50 (SNB-19 CNS) of 1.65 µM, a TGI (SNB-19 CNS) of 3.18 µM and a GI50 (SNB-75 CNS) of 1.39 µM. For the same compound, the TGI (SNB-75 CNS) was 2.92 µM, the GI50 (SW-620 colon) was 2.12 µM and the TGI (SW-620 colon) was 4.59 µM. The GI50 (T-47D breast) was 2.52 µM, the TGI (T-47D breast) was 8.13 µM and the GI50 (TK-10 renal) was 2.69 µM. For the same compound, the TGI (TK-10 renal) was 6.43 µM, the GI50 (U251 CNS) was 1.63 µM and the TGI (U251 CNS) was 3.07 µM. The GI50 (UACC-257 melanoma) was 1.79 µM, the TGI (UACC-257 melanoma) was 3.37 µM and the GI50 (UACC-62 melanoma) was 1.68 µM. For the same compound, the TGI (UACC-62 melanoma) was 3.48 µM, the GI50 (UO-31 renal) was 1.42 µM and the TGI (UO-31 renal) was 2.85 µM.
